Consider nine molecules from paper PMC8071193, “Dual-Target Compounds against Type 2 Diabetes Mellitus: Proof of Concept for Sodium Dependent Glucose Transporter (SGLT) and Glycogen Phosphorylase (GP) Inhibitors” (Pharmaceuticals, 2021).

Like-named read-outs stand apart in the source and are kept apart here. Some results are limits rather than exact numbers.

Assay [1] has as its system sodium dependent glucose cotransporter (SGLT2). On the set-up: method as in earlier work. The settings on record: ref 19 (1), 35 (2), 36 (3), 37 (4), 38 (5), 34 (6), cited from earlier work; for IC50: Table 1, read-out: IC50 against SGLT2; for selectivity SGLT2/SGLT1: Table 1, value in brackets.
The target of the next assay is T1, SGLT2 (Homo sapiens, UniProt P31639).
T1 construct: host or cells: TSA201 (Human Embryonal Kidney) cells, lentiviral transduction, puromycin selection
T1 sequence (P31639 1-672): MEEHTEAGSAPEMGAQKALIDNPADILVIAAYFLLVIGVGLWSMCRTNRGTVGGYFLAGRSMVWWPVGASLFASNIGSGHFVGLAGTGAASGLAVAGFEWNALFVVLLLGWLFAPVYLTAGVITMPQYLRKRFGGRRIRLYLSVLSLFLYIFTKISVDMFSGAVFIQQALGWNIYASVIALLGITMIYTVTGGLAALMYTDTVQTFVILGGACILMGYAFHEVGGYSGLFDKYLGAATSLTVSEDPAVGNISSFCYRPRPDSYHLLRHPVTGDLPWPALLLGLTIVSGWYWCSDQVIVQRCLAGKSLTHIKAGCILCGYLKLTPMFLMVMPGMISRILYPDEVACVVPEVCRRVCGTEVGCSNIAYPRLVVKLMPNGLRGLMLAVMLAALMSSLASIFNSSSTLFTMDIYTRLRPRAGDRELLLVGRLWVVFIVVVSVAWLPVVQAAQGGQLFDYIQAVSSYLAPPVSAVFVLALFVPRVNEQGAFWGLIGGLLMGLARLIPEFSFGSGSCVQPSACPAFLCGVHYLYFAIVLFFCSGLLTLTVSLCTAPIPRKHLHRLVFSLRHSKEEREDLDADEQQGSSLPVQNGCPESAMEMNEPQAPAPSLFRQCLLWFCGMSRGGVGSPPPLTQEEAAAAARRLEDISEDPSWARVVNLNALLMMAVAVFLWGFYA
Briefly: SGLT2 inhibition, 2-NBDG glucose uptake in SGLT2-overexpressing TSA201 cells. It counts as cell-based. The settings on record: for SGLT2 inhibition (in words): TSA201 cells, up to 1000 µM.

In assay [2] the target is T2, rabbit muscle glycogen phosphorylase b (rmGPb) (Oryctolagus cuniculus, UniProt P00489).
T2 construct: Glycogen phosphorylase b was isolated from rabbit skeletal muscle; from tissue; host or cells: rabbit skeletal muscle
T2 sequence (P00489 1-843): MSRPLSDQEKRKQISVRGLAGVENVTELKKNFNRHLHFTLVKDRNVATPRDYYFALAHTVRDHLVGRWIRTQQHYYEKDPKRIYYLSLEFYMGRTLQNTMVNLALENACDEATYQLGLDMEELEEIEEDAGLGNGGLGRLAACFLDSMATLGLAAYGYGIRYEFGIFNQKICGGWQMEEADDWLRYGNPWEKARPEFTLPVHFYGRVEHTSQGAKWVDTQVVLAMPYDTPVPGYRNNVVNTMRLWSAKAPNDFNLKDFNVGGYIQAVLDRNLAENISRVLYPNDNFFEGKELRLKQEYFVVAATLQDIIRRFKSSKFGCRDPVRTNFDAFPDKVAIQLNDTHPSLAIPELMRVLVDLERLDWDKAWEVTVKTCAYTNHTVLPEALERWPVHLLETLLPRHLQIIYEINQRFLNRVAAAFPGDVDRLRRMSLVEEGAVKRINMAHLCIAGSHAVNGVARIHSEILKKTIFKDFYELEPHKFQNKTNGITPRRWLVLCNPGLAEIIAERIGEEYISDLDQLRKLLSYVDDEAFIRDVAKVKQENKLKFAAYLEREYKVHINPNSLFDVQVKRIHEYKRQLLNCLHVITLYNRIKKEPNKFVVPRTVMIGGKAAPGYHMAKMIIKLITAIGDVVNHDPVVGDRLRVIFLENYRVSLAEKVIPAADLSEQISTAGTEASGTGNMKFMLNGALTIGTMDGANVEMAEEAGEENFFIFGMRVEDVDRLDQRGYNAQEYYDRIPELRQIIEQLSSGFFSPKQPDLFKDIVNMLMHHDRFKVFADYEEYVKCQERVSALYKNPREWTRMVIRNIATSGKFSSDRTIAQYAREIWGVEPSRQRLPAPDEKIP
To be noted: Table 3; NI: no inhibition at 625 µM; cited from earlier work.

The target in a further assay is T3, SGLT1 (Homo sapiens, UniProt P13866).
T3 construct: host or cells: TSA201 (Human Embryonal Kidney) cells, lentiviral transduction, puromycin selection
T3 sequence (P13866 1-664): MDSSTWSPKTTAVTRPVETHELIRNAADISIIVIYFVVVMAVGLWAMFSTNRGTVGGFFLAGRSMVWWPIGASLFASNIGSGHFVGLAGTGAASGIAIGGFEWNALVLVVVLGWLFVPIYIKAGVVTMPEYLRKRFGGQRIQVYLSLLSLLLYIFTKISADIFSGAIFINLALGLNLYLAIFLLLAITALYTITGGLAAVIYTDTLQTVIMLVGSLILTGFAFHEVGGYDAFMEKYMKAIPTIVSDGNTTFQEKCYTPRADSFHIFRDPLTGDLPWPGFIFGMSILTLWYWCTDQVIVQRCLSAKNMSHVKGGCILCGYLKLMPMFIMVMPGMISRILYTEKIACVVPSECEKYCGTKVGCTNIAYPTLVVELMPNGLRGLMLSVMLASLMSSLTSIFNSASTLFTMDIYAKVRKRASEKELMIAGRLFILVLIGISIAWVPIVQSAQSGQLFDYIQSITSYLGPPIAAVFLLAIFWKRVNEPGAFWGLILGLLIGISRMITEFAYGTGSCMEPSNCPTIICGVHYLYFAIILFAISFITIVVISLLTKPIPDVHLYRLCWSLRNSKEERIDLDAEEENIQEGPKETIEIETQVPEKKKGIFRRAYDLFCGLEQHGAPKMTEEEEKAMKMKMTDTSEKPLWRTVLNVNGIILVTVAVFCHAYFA
The experiment in a line: SGLT1 inhibition, 2-NBDG glucose uptake in SGLT1-overexpressing TSA201 cells. The assay is classed as cell-based.

Assay [3] has as its target T2, rabbit muscle glycogen phosphorylase b (rmGPb). Briefly: Glycogen phosphorylase b enzyme kinetic inhibition assay (direction of glycogen synthesis). It counts as biochemical. To be noted: Table 2; NI: no inhibition at 625 µM. An excerpt:
The 2-NBDG (2-deoxy-2-[(7-nitro-2,1,3-benzoxadiazol-4-yl)amino]-D-glucose, cat. 11046) was purchased from Cayman Chemical Company (Ann Arbor, MI, USA). Lentivirus for SLC5A1 and SLC5A2 (NM_000343 for SGLT1, and NM-003041 for SGLT2) were obtained from Origene (Rockville, MD, USA). These expression vectors contain a puromycin resistance gene. […] CyQUANT^TM Cell Proliferation Assay Kit (2036547) was from Invitrogen (Carlsbad, CA, USA). Glycogen phosphorylase b was isolated from rabbit skeletal muscle according to the method of Fischer and Krebs.
Enzyme activity in the direction of glycogen synthesis was assayed. Kinetic data were collected using the muscle phosphorylase b (dephosphorylated, GPb) isoform. […] Enzymatic activities were presented in the form of a double-reciprocal plot (Lineweaver-Burk). The plots were analysed by a non-linear data analysis program. The inhibitor constants (Ki) were determined by secondary plots, replotting the slopes from the Lineweaver-Burk plot against the inhibitor concentrations. The means of standard errors for all calculated kinetic parameters averaged to less than 10% [78, 79].

Setting [4] is: Table 3, TSA-201 cells, NI: no inhibition at 1000 µM.
Setting [5] is: Table 2, TSA-201 cells, NI: no inhibition at 1000 µM, compounds 1-2 used as controls for in-house assay.

Procedure for SGLT1: Cells (100,000 cells, TSA201) were plated into each well of a 24-well plate and incubated overnight at 37 °C. […] Two wells were treated only with hexadimetrine bromide as a control. After 24 h of transfection, the medium was changed to fresh medium without antibiotics. Cells were collected and transferred into T-25 flasks after 3 days. On the fifth day, 10 µg/mL puromycin was added to select only the transfected cells. The nontransfected cells cannot survive this high concentration of antibiotic. To keep up the selection, the medium including 10 µg/mL puromycin was replaced every two days. The cells lived under puromycin pressure until the day of the experiments.
TSA201 cells (25,000) with and without overexpressed SGLT1 or 2 were put into poly-L-lysine (P5999, Sigma-Aldrich, St. Luis, MO, USA) treated wells of a 96-well plate. The next day, the cells were starved for 1 h with 90 µL glucose-free medium (D5036-10X1L Sigma-Aldrich, St. Luis, MO, USA) (with or without inhibitor). After starving, cells were treated with 100 µM 2-NBDG and incubated for 30 min (again with or without inhibitor). The incubation time of cells with possible inhibitors was 90 min altogether. After incubation, the medium was removed, the wells were washed with PBS twice, lysed with 100 µL lysis buffer (0.1 M KH2PO4 + 1% Triton-x, pH = 11), and stored at -20°C. […] Subsequently, the protein concentration was measured and NBDG uptake was normalized to protein amount.
After selecting optimal concentrations, each compound was tested at four different concentrations. […] To determine the specific effects of the compounds on SGLT1 or 2, the glucose uptake values in TSA201 cells without SGLT overexpression were subtracted from the values in TSA201 cell overexpressing SGLT. […] All calculations were prepared using the GraphPad Prism software (GraphPad Software, Inc., SanDiego, CA, USA). The data were plotted on a logarithmic scale as a function of inhibitor concentration. The IC50 values were calculated by non-linear regression analysis from sigmoidal dose-response curves. The results of kinetic experiments were calculated from at least three independent experiments. Each experiment contained four parallel samples that were averaged. The standard deviations were calculated based on the average values for the independent experiments.

With `O=C(CCc1ccc(O)cc1)c1c(O)cc(O)cc1O[C@@H]1O[C@H](CO)[C@@H](O)[C@H](O)[C@H]1O` [compound 1, phlorizin], in assay [1], the concentration for half-maximal inhibition (IC50) was 0.033 µM.
Consider `OC[C@H]1O[C@@H](c2ccc(F)c(Cc3cc4ccccc4s3)c2)[C@H](O)[C@@H](O)[C@@H]1O` [compound 5, ipragliflozin], for which, in assay [1], the “selectivity SGLT2/SGLT1” value was 254 and the IC50 was 0.0074 µM.
On to `OC[C@H]1O[C@@H](c2cn(-c3ccccc3)nn2)[C@H](O)[C@@H](O)[C@@H]1O` [22a], for which the IC50 against SGLT2 (setting [4]) stood at 9.1 ± 2.94 µM; against SGLT1 (setting [4]), 242 ± 37.9 µM. In assay [2], the Ki was over 625 µM.
As for `Cc1ccc([C@@H]2O[C@H](CO)[C@@H](O)[C@H](O)[C@H]2O)cc1Cc1ccc(-c2ccc(F)cc2)s1` [compound 4, canagliflozin], in assay [1], the “selectivity SGLT2/SGLT1” value is on record as 414 and the IC50 is 0.0022 µM.
`OC[C@H]1O[C@@H](c2cn(-c3ccc4ccccc4c3)nn2)[C@H](O)[C@@H](O)[C@@H]1O` [22b]: the figures for the IC50 on SGLT2 (setting [4]) and at SGLT1 (setting [4]) were 111 ± 27.6 µM and 23.8 ± 5.72 µM, respectively. Moreover, the Ki in assay [2] is over 625 µM.
As to `OC[C@H]1O[C@@H](c2nc(Cc3ccccc3)n(-c3ccccc3)n2)[C@H](O)[C@@H](O)[C@@H]1O` [19c], the results for the IC50 (at SGLT2; in assay [3]; against SGLT1) were 2.44 ± 0.85 µM, over 625 µM and 35.5 ± 9.56 µM, respectively.
In the case of `OC[C@H]1O[C@@H](c2nnc(Cc3ccc(Cl)cc3)o2)[C@H](O)[C@@H](O)[C@@H]1O` [13c, 5-(4-Chlorobenzyl)-2-(β-D-glucopyranosyl)-1,3,4-oxadiazole], the “SGLT2 inhibition (in words)” value at SGLT2 is reported as “complete loss of the inhibition”. Also, the IC50 was over 1000 µM against SGLT2 (setting [5]), over 625 µM in assay [3] and over 1000 µM on SGLT1 (setting [5]).
In the case of `COc1ccc(Cc2nnc([C@@H]3O[C@H](CO)[C@@H](O)[C@H](O)[C@H]3O)o2)cc1` [13b, 2-(β-D-Glucopyranosyl)-5-(4-methoxybenzyl)-1,3,4-oxadiazole], the “SGLT2 inhibition (in words)” value on SGLT2 is “complete loss of the inhibition”. In addition, the IC50 was over 1000 µM on SGLT2 (setting [5]), over 625 µM in assay [3] and over 1000 µM against SGLT1 (setting [5]).
As for `COc1ccc(Cc2ccnc([C@@H]3O[C@H](CO)[C@@H](O)[C@H](O)[C@H]3O)n2)cc1` [16b, 2-(β-D-Glucopyranosyl)-4-(4-methoxybenzyl)pyrimidine], the IC50 at SGLT2 was 11.6 ± 3.19 µM; in assay [3], over 625 µM; against SGLT1 (setting [5]), over 1000 µM. The “SGLT2 inhibition (in words)” value on SGLT2 is given as “inhibitory activity in the micromolar range”.
